According to patent US7700576B2, “Pharmaceutical composition on basis of reverse transcriptase inhibitor and meldonium” (priority 2005, dated 2010):

Tests used:
[1] = mouse, in vivo
Procedure: (§1) For this purpose in an experiment of analogous pattern, the experimental animals' neurological reactions were assessed after a fortnight. For this assessment, the common test of pain latent period in the tail compression model as well as the appraisal of cerebral cortex neuron degenerative transformation was made (molecular and external granule layers).

myocardium = system: myocardium; set-up: species or system mice; settings: mouse, in vivo, ip
Procedure: The cardiotoxic action of Zidovudine and Meldonium pharmaceutical compositions was investigated by introducing them into male mice of initial mass 15.69±1.56 g during a fortnight. Throughout the experiment, the animals were kept in standard laboratory conditions at temperature of 22±0.5° C. and 12 hours light/darkness cycle, being fed with standard laboratory animal food. For the control group (n=6), 10 ml of 0.9% NaCl aqueous solution was intraperitoneally introduced daily (1st and 12th group). In a series of experiments, the following solutions were administered intraperitoneally for animal trial groups (including 6 mice each) daily. On the 15th day of the trial, the animals were decapitated, hearts were taken out and placed into 10% formalin solution. For immuno-histochemical research, organs were fixed in paraffin, and preparations of 4 μm thickness were sliced which were tinged according to the avidin-biotin immuno-histochemical method by use of DAKO LSAB reagent kit.

cerebral cortex neurons = assay: Cerebral cortex neuron degenerative transformation (molecular and external granule layers); format: in vivo, mice; settings: after a fortnight
Procedure: as §1

[2] = oral introduction; cited from earlier work
mice = settings: p.o. for mice; cited from earlier work

Compound | Algesia (pain latent period, tail compression) [1] | Histological changes of heart tissue (myocardium) | Increase in degenerated neurons of the cerebral cortex as compared with the control (cerebral cortex neurons) [fold] | bioavailability [2] | toxicity (mice)
Cc1cn([C@H]2C[C@H](N=[N+]=[N-])[C@@H](CO)O2)c(=O)[nH]c1=O [AZT, 3′-Azido-3′-deoxythymidine] | provokes significant algesia | induces perivascular oedema, degeneration of myocardium adipose tissue and infiltration with leucocytes | 3 | – | –
C[N+](C)(C)NCCC(=O)[O-] [Meldonium, 3-(2,2,2-Trimethylhydrazinium) propionate] | – | – | – | very high | more than 25,000 mg/kg
Nc1ccn([C@@H]2CS[C@H](CO)O2)c(=O)n1 [Lamivudine, (2R-cis)-4-Amino-1-[2-(hydroxymethyl)-1,3-oxathiolan-5-yl]-2(IH)-pyrimidinone] | provokes significant algesia | – | 3 | – | –
Cc1cn([C@H]2C=C[C@@H](CO)O2)c(=O)[nH]c1=O [Stavudine, 2′,3′-Didehydro-3′-deoxythymidine] | provokes significant algesia | induces perivascular oedema, degeneration of myocardium adipose tissue and infiltration with leucocytes | 3 | – | –
